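In this assay, cells in 96-well plates receive the compound at five concentrations for 48 hours. Endpoints are linearly interpolated between the surrounding concentrations. GI50: concentration for 50% inhibition of growth. TGI denotes the concentration required for complete inhibition of growth.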
What was measured:
Assay in all cases: growth of human tumour cells (NCI), 48 h
SK-MEL-2 melanoma = tested on: SK-MEL-2 melanoma
OVCAR-5 ovarian = tested on: OVCAR-5 ovarian
SNB-19 CNS = tested on: SNB-19 CNS
A498 renal = tested on: A498 renal
IGROV1 ovarian = tested on: IGROV1 ovarian
KM12 colon = tested on: KM12 colon
SW-620 colon = tested on: SW-620 colon
NCI-H23 lung = tested on: NCI-H23 lung
HOP-62 NSCLC = tested on: HOP-62 NSCLC
CAKI-1 renal = tested on: CAKI-1 renal

| SMILES | GI50 (SK-MEL-2 melanoma) [µM] | TGI (SK-MEL-2 melanoma) [µM] | GI50 (OVCAR-5 ovarian) [µM] | TGI (OVCAR-5 ovarian) [µM] | GI50 (SNB-19 CNS) [µM] | TGI (SNB-19 CNS) [µM] | GI50 (A498 renal) [µM] | TGI (A498 renal) [µM] | GI50 (IGROV1 ovarian) [µM] | TGI (IGROV1 ovarian) [µM] | GI50 (KM12 colon) [µM] | TGI (KM12 colon) [µM] | GI50 (SW-620 colon) [µM] | GI50 (NCI-H23 lung) [µM] | GI50 (HOP-62 NSCLC) [µM] | TGI (HOP-62 NSCLC) [µM] | GI50 (CAKI-1 renal) [µM] | TGI (CAKI-1 renal) [µM] | TGI (SW-620 colon) [µM] | TGI (NCI-H23 lung) [µM] |
| --- | --- | --- | --- | --- | --- | --- | --- | --- | --- | --- | --- | --- | --- | --- | --- | --- | --- | --- | --- | --- |
| CC(C)C[C@H](NC(=O)CNC(=O)c1cc(Cl)ccc1Cl)B(O)O | < 0.0145 | 0.0364 | 0.0493 | 0.551 | 0.273 | > 87.8 | < 0.0158 | 0.0336 | 0.0498 | 0.283 | 0.0295 | 0.101 | < 0.0173 | 0.0282 | 0.0472 | 0.429 | < 0.0165 | 0.0676 |  |  |
| Cc1nc([N+](=O)[O-])cn1-c1nc2ccccn2c1[N+](=O)[O-] |  | > 100 |  | > 100 |  | > 100 |  | > 100 |  | > 100 |  | > 100 |  |  |  | > 100 |  | > 100 | > 100 | > 100 |
| COc1ccc2ncn(-c3cc(O[C@H](C)c4ccccc4C(F)(F)F)c(C(N)=O)s3)c2c1 | 0.12 | 4.82 | 0.162 | 14.9 | 1.88 | 11.3 | 0.0764 | 0.597 | 0.312 | 10.5 | 0.0794 | 3.04 | 0.0749 | 0.113 | 0.105 | 4.18 | 1.65 | 17.5 | 6.01 | 5.9 |
| CC(C)(C)C1=CC(=C(P(=O)(O)O)P(=O)(O)O)C=C(C(C)(C)C)C1=O |  | > 50 |  | > 50 |  | > 50 |  | > 50 |  | > 50 |  | > 50 |  |  |  | > 50 |  | > 50 | > 50 | > 50 |
| Cc1onc(-c2ccccc2)c1C(=O)N/N=C/c1cc(Cl)cc(Cl)c1O | 11.5 | 56 | 8.65 | > 100 | 4.12 | > 100 | 15 | 58.2 | 2.92 | 21.7 | 5.54 | > 100 | 6.81 | 10.6 | 6.04 | 55.7 | 1.84 | 10.5 | > 100 | 67.9 |
| CC1=N/C(=C/c2ccc3c(c2)OCO3)C(=O)O1 |  | > 100 |  | > 100 |  | > 100 |  | > 100 |  | > 100 |  | > 100 |  |  |  |  |  | > 100 | > 100 | > 100 |
| CC(=O)Nc1ccc(/C=C/C(=O)c2sc(-c3cccnc3)nc2C)cc1 |  | > 100 |  | > 100 |  |  |  | > 100 |  | > 100 |  | > 100 |  |  |  | > 100 |  | > 100 | > 100 | > 100 |
| O=C(CCC(=O)Nc1ccc(Cl)c(Cl)c1)Cc1nc2ccccc2o1 |  | > 100 |  | > 100 |  | > 100 |  | > 100 |  | > 100 |  | > 100 |  |  |  | > 100 |  | > 100 | > 100 | > 100 |
| C=C[C@@H](C)[C@]1(C(=O)OC)CCCC12OCCO2 |  | > 100 |  | > 100 |  | > 100 |  | > 100 |  | > 100 |  | > 100 |  |  |  | > 100 |  | > 100 |  |  |
| N#C/C(=C\c1cc(O)cc(O)c1)C(N)=O |  | > 100 |  | > 100 |  | > 100 |  | > 100 |  | > 100 |  | > 100 |  |  |  | > 100 |  | > 100 | > 100 | > 100 |
| COc1cc(/C=C2\CC3C4CC=C5C[C@@H](OC(C)=O)CC[C@]5(C)C4CC[C@]3(C)C2=O)ccc1OCCN1CCCCC1 (some centres undefined) | 10.1 | 28.4 | 3.83 | 7.42 | 8.46 | 43.3 | 1.71 | 5.07 |  |  | 1.99 | 4.27 | 3.18 | 10.4 | 12.1 | 25.9 | 2.65 | 7.64 | 7.32 | 22.2 |
| CC(C)(O)C(O)COc1c2c(cc3oc(=O)ccc13)OCO2 (centres undefined) |  | > 100 |  | > 100 |  | > 100 |  | > 100 |  | > 100 |  | > 100 |  |  |  | > 100 |  | > 100 | > 100 | > 100 |
| O=C(C(=O)c1cc2ccccc2[nH]1)c1cc2ccccc2[nH]1 |  | > 347 |  | > 347 |  | > 347 |  | > 347 |  | > 347 |  | > 347 |  |  |  | > 347 |  | > 347 | > 347 | > 347 |
| CN(Cc1ccccc1)Cn1ccnc1 |  | > 100 |  | > 100 |  | > 100 |  | > 100 |  | > 100 |  | > 100 |  |  |  | > 100 |  | > 100 | > 100 | > 100 |
| CN[C@H]1CN(c2ccc3c(=O)c(C(=O)O)cn(-c4nccs4)c3n2)C[C@@H]1OC | 1.51 | 3.56 | 2.31 | 6.45 | 0.376 | 14.2 | 0.273 | 2.01 | 0.353 | 7.15 | 1.37 | 13.9 | 0.633 | 0.34 | 0.6 | 3.4 | 0.271 | 2.24 | 3.54 | 2.01 |
| O=C(CN(/C=C/C(=O)C(F)(F)F)c1ccc(Cl)cc1)c1ccc(Cl)cc1 | 3.88 | 14.4 | 16.1 | 32.9 | 11 | 31.2 | 13.5 | 26.9 | 1.79 | 7.96 | 3.59 | 20.8 | 10.2 | 6.3 | 32.8 | > 100 | 1.98 | 9.5 | 23.7 | 20.9 |
| Nc1nc(/C=C\c2ccc([N+](=O)[O-])s2)nc(N2CCN(c3ccccc3)CC2)n1 | 21.2 | 48.5 | 40 | 98.3 | 30.5 | 77 | 0.0746 | 15.5 | 14.5 | 34.7 | 16.6 | 38.7 | 6.3 |  | 29 | 64.3 | 18.1 | 39.1 | 27.9 |  |
| CC1(C)OC2C(CCP(=O)(O)O)OC(c3nc(C(N)=O)cs3)C2O1 (centres undefined) |  | > 100 |  | > 100 |  | > 100 |  | > 100 |  | > 100 |  | > 100 |  |  |  |  |  | > 100 | > 100 | > 100 |
